Data from US20230105108A1, “COMPOUNDS FOR THE TREATMENT OF BACTERIAL INFECTIONS AND POTENTIATION OF ANTIBIOTICS” (GEORGIA STATE UNIVERSITY RESEARCH FOUNDATION, INC., priority 2019, published 2023).
Structures can show the parent of a compound that is named as a salt. Where two headings read alike, the source gives them in different places.

Experiments:
B. subtilis = assay: MIC determination and sensitization fold on B. subtilis; format: cell-based; details: for Sensitization fold: erythromycin; for MIC: Bacillus subtilis
[1] = IC50 of Table 7 (cell line not stated); format: cell-based
[2] = system: A. baumannii (ATCC 17978); assay: MIC, sensitization fold and FIC index on A. baumannii; format: cell-based; details: Acinetobacter baumannii, ATCC17978; A. baumannii; read-out: MIC of MD-124
K. pneumoniae (43816) = assay: MIC, sensitization fold and FIC index on K. pneumoniae; format: cell-based; details: Klebsiella pneumoniae; K. pneumoniae; read-out: MIC of MD-124
[3] = system: NDM-1 expressing E. coli strain; assay: microbe, parasite or virus in culture; format: cell-based; details: Escherichia coli; NDM-1 expressing E. coli; read-out: MIC of MD-124
E. coli = assay: Ex vivo skin burn infection model, wild-type E. coli; details: human skin burn, hypromellose gel, 24 hours; 4‰ (w/w) novobiocin, 1.5‰ MD-124
Experimental: To achieve topical application, compounds were formulated as hypromellose gel. […] After that, skin was loaded with hypromellose gel with different antibiotics and cultured at 37° C. for 24 hours. After 24 hours incubation, the skin sample was homogenized and the supernatants were serially diluted and plated on agar plates, from which bacterial counts on the skin was calculated. […] 1‰ polymyxin B hypromellose gel was used as positive control.

| SMILES | growth density compared with the control (no treatment) group (B. subtilis; B. subtilis, 5.5 μg/ml alone, no antibiotic) | Sensitization fold (B. subtilis; B. subtilis, compound at 6 μM) | Sensitization fold (B. subtilis; B. subtilis, compound at 12 μM) | MIC (B. subtilis; 24 h, B. subtilis, compound alone, read-out: MIC) | MIC (B. subtilis; wild type B. subtilis, read-out: MIC of DB2560) | IC50 [1] | MIC [2] | MIC (K. pneumoniae (43816)) | MIC [3] | E. coli growth inhibition / bacterial load vs vehicle group (E. coli) |
| --- | --- | --- | --- | --- | --- | --- | --- | --- | --- | --- |
| Cc1cc(COc2ccc(C(=N)N)cc2)cc(COc2ccc(C(=N)N)cc2)c1 [MD-100, 4,4′-(((5-methyl-1,3-phenylene)bis(methylene))bis(oxy))dibenzimidamide dihydrochloride] | 80% | 8 fold at 6 μM. | 32-fold at 12 μM; | 50 µM | 50 µg/mL | 100 µM | – | – | – | – |
| N=C(N)c1ccc(COc2cc(OCc3ccc(C(=N)N)cc3)cc(C(F)(F)F)c2)cc1 [MD-124, 4,4′-(((5-(trifluoromethyl)-1,3-phenylene)bis(oxy))bis(methylene)) dibenzimidamide dihydrochloride] | – | – | – | – | – | – | 25 µg/mL | 25 µg/mL | 50 µg/mL | neither 4‰ (w/w) novobiocin nor 1.5‰ MD-124 themselves achieved significant E. coli growth inhibition |
